In US20070259844A1, “Antiviral Compositions And Methods Of Using The Same” (VGX PHARMACEUTICALS, priority 2003, published 2007):

Experiments:
[1] = molecular target: T1, human glucocorticoid receptor (Homo sapiens, UniProt P04150); details: cited from earlier work
T1 sequence (P04150 1-777): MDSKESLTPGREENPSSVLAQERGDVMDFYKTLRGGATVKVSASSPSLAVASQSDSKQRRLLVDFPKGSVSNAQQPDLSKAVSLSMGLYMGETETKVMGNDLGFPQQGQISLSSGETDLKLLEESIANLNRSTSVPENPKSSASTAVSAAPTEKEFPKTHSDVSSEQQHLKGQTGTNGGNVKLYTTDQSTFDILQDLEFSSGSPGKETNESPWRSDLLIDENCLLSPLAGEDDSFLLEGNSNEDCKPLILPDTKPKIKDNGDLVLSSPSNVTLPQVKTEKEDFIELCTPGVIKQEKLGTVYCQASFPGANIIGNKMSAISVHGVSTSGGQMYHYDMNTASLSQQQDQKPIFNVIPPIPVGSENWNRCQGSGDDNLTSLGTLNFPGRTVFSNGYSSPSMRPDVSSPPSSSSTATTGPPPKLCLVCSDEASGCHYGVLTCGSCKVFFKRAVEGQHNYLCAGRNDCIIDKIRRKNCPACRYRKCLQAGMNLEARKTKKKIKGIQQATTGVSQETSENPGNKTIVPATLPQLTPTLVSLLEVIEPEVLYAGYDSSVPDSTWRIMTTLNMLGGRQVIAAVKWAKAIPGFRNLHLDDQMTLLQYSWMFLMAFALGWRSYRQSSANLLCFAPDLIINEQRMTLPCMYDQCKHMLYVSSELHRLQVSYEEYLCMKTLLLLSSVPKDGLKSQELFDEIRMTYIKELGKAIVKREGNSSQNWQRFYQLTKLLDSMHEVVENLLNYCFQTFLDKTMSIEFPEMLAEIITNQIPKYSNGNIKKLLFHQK

[2] = test system: HCV RNA-replicating cell line AVA5; test: Primary in vitro anti-HCV screen, intracellular HCV RNA levels in AVA5 cells; type: cell-based
Experimental: (§1) The antiviral activity of test compounds are assayed in the stably HCV RNA-replicating cell line, AVA5, derived by transfection of the human hepatoblastoma cell line, Huh7 (Blight, et al., 2000, Sci. 290:1972). Compounds are added to dividing cultures once daily for three days (media is changed with each addition of compound). Cultures generally start the assay at 50% confluence and reach confluence during the last day of treatment. Intracellular HCV RNA levels and cytotoxicity are assessed 24 hours after the last dose of compound.
(§2) Assays are conducted using a single dose of test compound. Replicate cultures for HCV RNA levels (on 48-well plates) and triplicate cultures for cytoxicity (on 96-well plates) are used.
Intracellular HCV RNA levels are measured using standard blot hybridization (Korba & Gerin, 1992, Antivir. Res. 19:55) using triplicate cultures. HCV RNA levels in the treated cultures are expressed as a percentage of the mean levels of RNA detected in untreated cultures. Levels of β-actin RNA are used to normalize HCV RNA levels in each sample.

[3] = Cytotoxicity in the anti-HCV screen (AVA5 cultures); type: cell-based, human; details: human, AVA5 cells (stably HCV RNA-replicating, derived from Huh7); toxicity control, AVA5 cells, once daily for three days; read-out: approximate CC90
Experimental: as §1, §2

[4] = test system: AVA5 cells (derived from human hepatoblastoma cell line Huh7); test: as above; type: cell-based; details: 10 IU/ml
Experimental: as §1, §2

C[C@]12CCC(=O)C=C1CC[C@@H]1[C@@H]2[C@@H](O)C[C@@]2(C)[C@H]1CC[C@]2(O)C(=O)CO [cortisol, reference compound]
relative binding affinity to the human glucocorticoid receptor [1]: 23%

NC(=O)c1ncn([C@@H]2O[C@H](CO)[C@@H](O)[C@H]2O)n1 [ribavirin, reference compound]
antiviral activity at the CC90 ([2]; 100 μM): no antiviral activity
CC90 at 3 days [3]: ~100 µM

α-interferon
approximate EC90 ([2]; positive antiviral control, AVA5 cells, once daily for three days): ~10 IU/ml
cytotoxicity at the EC90 [4]: no cytotoxicity
